The values that follow come from PMC11514314, “The aquastatin biosynthetic gene cluster encodes a versatile polyketide synthase capable of synthesising heteromeric depsides with diverse alkyl side chains” (Chemical Science, 2024).

In test [1] the test system is NFF (ATCC PCS-201) human neonatal foreskin fibroblast cells. Kind of test: Cytotoxicity resazurin assay, NFF cells. The class given is cell-based. Particulars: Homo sapiens; neonatal foreskin fibroblast NFF, 96 h; read-out: IC50 NFF. As for the experimental part: (§1) 12. Bioactivity screening.
(§2) Purified metabolites were dissolved in DMSO to create stock solutions of 10,000 µg/mL. An aliquot from each stock solution was transferred to the first well of Rows B to G on a 96-well microtitre plate and then serially diluted two-fold with DMSO across the 12 wells of the plate to achieve a 2,048-fold concentration gradient. Bioassay medium was added to an aliquot of each diluted solution to achieve a 100-fold dilution in the final bioassay. This […]
(§3) 0.1 µg/mL in 2% DMSO for yeasts. Row A served as a control with no test compound (indicating no inhibition), and Row H was left uninoculated (serving as a control for complete inhibition). […]
(§4) MIC endpoints were determined visually. Absorbance was measured using a Multiskan Skyhigh […]
as §4
(§5) NS-1 (ATCC TIB-18) mouse myeloma and NFF (ATCC PCS -201) human neonatal foreskin fibroblast cells were each inoculated in 96-well microtitre plates (190 µL) at 50,000 cells/mL in DMEM (Dulbecco's Modified Eagle Medium + 10% fetal bovine serum (FBS) + 1% penicillin/streptomycin (10,000 U/mL / 10,000 µg/mL, Life Technologies Cat. No. 15140122), together with resazurin (250 µg/mL; 10 µL) and incubated in 37 °C (5% CO2) incubator. The plates were incubated for 96 h during which time the positive control wells change colour from a blue to pink colour. The absorbance of each well was measured using Multiskan Skyhigh Microplate Spectrophotometer (Thermofisher Scientific) at 605 nm. Sparsomycin was used as a control. The IC50 values were determined using a sigmoidal dose-response model with variable slope in GraphPad Prism 8.

Test [2] concerns NS-1 (ATCC TIB-18) mouse myeloma cells. Kind of test: Cytotoxicity resazurin assay, NS-1 cells. Particulars: NS1; mouse myeloma NS-1 ATCC TIB-18, 96 h; read-out: IC50 NS-1. Type of test: cell-based. The procedure: as §1, §2, §3, §4, §4, §5
On the technique in general: The colour change of resazurin is a common sign of viable cells or microbes.

Test [3] concerns MRSA (ATCC 33592). In words: Antibacterial ProTOX bioassay, MRSA. Particulars: Staphylococcus aureus; MRSA ATCC 33592, 48 h, 28 °C; read-out: Minimum inhibitory concentration (MIC) MRSA. Type of test: cell-based, methicillin-resistant S. aureus. As for the experimental part: as §1, §2
(§6) 0.1 µg/mL in 2% DMSO for yeasts. Row A served as a control with no test compound (indicating no inhibition), and Row H was left uninoculated (serving as a control for complete inhibition).
(§7) B. subtilis (ATCC 6633), S. aureus (ATCC 25923) and MRSA (ATCC 33592) were used as indicator species for antibacterial activity, employing the ProTOX bioassay platform. A bacterial suspension (50 mL in a 250 mL flask) was prepared in nutrient media by cultivating it for 24 h at 250 rpm and 28 °C. The suspension was diluted to an absorbance of 0.01 absorbance units per mL, and 10 µL aliquots were added to the wells of a 96-well microtitre plate containing the test compounds dispersed in 190 µL of nutrient broth (Amyl) with 10 µL resazurin (12.5 µg/mL). The plates were incubated at 28 °C for 48 h, during which the positive control wells changed colour from blue to light pink. Tetracycline was employed as a control for B. subtilis, while ampicillin was used for S. aureus and MRSA. MIC endpoints were determined visually. Absorbance was measured using a Multiskan Skyhigh Microplate Spectrophotometer (Thermo Fisher Scientific) at 605 nm.

Test [4] concerns mammalian adenosine triphosphatases. Also on record: method as in PMID 8270486. Particulars: cited from earlier work.
Test [5] has as its system S. aureus (ATCC 25923). In words: Antibacterial ProTOX bioassay, S. aureus. The class given is cell-based. The conditions noted are these: Staphylococcus aureus, ATCC25923; S. aureus ATCC 25923, 48 h, 28 °C; read-out: Minimum inhibitory concentration (MIC) S. aureus. The procedure:
as §1, §2, §6, §7

Test [6] concerns B. subtilis (ATCC 6633). Kind of test: Antibacterial ProTOX bioassay, B. subtilis. Type of test: cell-based. Particulars: Bacillus subtilis, ATCC6633; B. subtilis ATCC 6633, 48 h, 28 °C; read-out: Minimum inhibitory concentration (MIC) B. subtilis. The procedure: as §1, §2, §6, §7
Test [7] concerns Saccharomyces cerevisiae (ATCC 9763). In words: Antifungal EuTOX bioassay, S. cerevisiae. The class given is cell-based. The conditions noted are these: Saccharomyces cerevisiae, ATCC9763; S. cerevisiae ATCC 9763, 48 h; read-out: Minimum inhibitory concentration (MIC) S. cerevisiae. As for the experimental part: as §1, §2, §3, §4
Saccharomyces cerevisiae (ATCC 9763) was used as indicator species for antifungal activity, employing the EuTOX bioassay platform. A yeast suspension (50 mL in a 250 mL flask) was prepared in 1% malt extract broth by cultivating it for 24 h at 250 rpm and 24 °C. The suspension was diluted to absorbances of 0.03 absorbance units per mL and 30 µL were added to the wells of a 96-well microtitre plate containing the test compounds dispersed in 100 µL of malt extract agar with bromocresol green (50 µg/mL). The plates were incubated at 28 °C for 48 h, during which the positive control wells changed colour from blue to yellow. Blasticidin S HCl was used

A further test concerns HIV-1 integrase. Set-up: method as in PMID 19952429, PMID 15015729. Particulars: cited from earlier work.
Test [8] deals with fatty acid synthase II (FAS II). Particulars: cited from earlier work.
Test [9] relates to methicillin-resistant S. aureus (MRSA). Also on record: method as in PMID 19952429. The conditions noted are these: cited from earlier work.
Test [10] has as its system NS-1 (ATCC TIB-18) mouse myeloma cells. Set-up: method as in Crombie et al.[17]. Particulars: mouse myeloma NS-1; ref Crombie et al.[17]; cited from earlier work.
The test system of test [11] is MRSA (ATCC 33592). Set-up: method as in Crombie et al.[17]. Particulars: ref Crombie et al.[17]; cited from earlier work.
The test system of test [12] is S. aureus (ATCC 25923). Set-up: method as in Crombie et al.[17]. The conditions noted are these: ref Crombie et al.[17]; cited from earlier work.
The test system of test [13] is B. subtilis (ATCC 6633). Set-up: method as in Crombie et al.[17]. The conditions noted are these: ref Crombie et al.[17]; cited from earlier work.
The test system of test [14] is Saccharomyces cerevisiae (ATCC 9763). The conditions noted are these: S. cerevisiae ATCC 9763; ref Crombie et al.[17]; cited from earlier work.
Test [15] has as its system NFF (ATCC PCS-201) human neonatal foreskin fibroblast cells. Also on record: method as in Crombie et al.[17]. Particulars: ref Crombie et al.[17]; cited from earlier work.

≈ marks a conversion by molar mass, not a printed value. Bounds are passed on as bounds.

What is called IC50 is the concentration that inhibits the measured activity by half.

Regarding `CCCCCCCCCCCCCCCc1cc(O[C@@H]2O[C@H](CO)[C@@H](O)[C@H](O)[C@H]2O)cc(O)c1C(=O)Oc1cc(C)c(C(=O)O)c(O)c1` [1a, Aquastatin A], the IC50 in [1] and in test [2] was over 100 mg/L each time. In addition, the MIC in the test with MRSA (ATCC 33592) [3] is 1.6 mg/L (≈ 2.36 µM); in the test on S. aureus (ATCC 25923) [5] it was 12.5 mg/L (≈ 18.5 µM); in the test with B. subtilis (ATCC 6633) [6] it was 1.6 mg/L (≈ 2.36 µM); in test [7] it was over 200 mg/L. In test [4], the “inhibition of mammalian adenosine triphosphatases” value is “inhibitor”. Further, the “inhibition of HIV-1 integrase” value in the test on HIV-1 integrase is “inhibit”. Also, the “inhibition of fatty acid synthase II (FAS II)” value in test [8] is given as “inhibit”. Further, in test [9], the “antibacterial activity against MRSA” value is “demonstrated antibacterial activity”.
With `CCCCC/C=C\C/C=C\CCCCCCCc1cc(O[C@@H]2O[C@H](CO)[C@H](O)[C@H](O)[C@H]2O)cc(O)c1C(=O)Oc1cc(C)c(C(=O)O)c(O)c1` [2a, Geministatin A], the “IC50 NS-1” value in [10] is over 50 µM. Also, the “Minimum inhibitory concentration (MIC) MRSA” value in the test with MRSA (ATCC 33592) [11] is 6.3 mg/L (≈ 8.99 µM). For the same compound, in the test on S. aureus (ATCC 25923) [12], the “Minimum inhibitory concentration (MIC) S. aureus” value is 6.3 mg/L (≈ 8.99 µM). Further, the “Minimum inhibitory concentration (MIC) B. subtilis” value in the test on B. subtilis (ATCC 6633) [13] was 1.6 mg/L (≈ 2.28 µM). The “Minimum inhibitory concentration (MIC) S. cerevisiae” value in test [14] was over 200 mg/L. Also, the “IC50 NFF” value in test [15] was over 100 µM.
Consider `CCCCCCCCCCCCCCCc1cc(O[C@@H]2O[C@H](CO)[C@H](O)[C@H](O)[C@H]2O)cc(O)c1C(=O)OC` [1c, aquastatin C], for which the IC50 in test [1] and in test [2] was over 100 mg/L in each case. The MIC is over 100 mg/L in the test with MRSA (ATCC 33592) [3], over 100 mg/L with S. aureus (ATCC 25923) [5], over 100 mg/L in the test with B. subtilis (ATCC 6633) [6] and over 200 mg/L in test [7]. Moreover, the “FAS II inhibitory activity” value in [8] is recorded as “do not demonstrate”.
Turning to `CCCCCCCCCCCCCCCc1cc(O)cc(O)c1C(=O)Oc1cc(C)c(C(=O)O)c(O)c1` [1b, Aquastatin B], the IC50 in test [1] is over 100 mg/L; in test [2] it was over 50 mg/L. Besides, the MIC in the test with MRSA (ATCC 33592) [3] was over 50 mg/L; in the test with S. aureus (ATCC 25923) [5], over 100 mg/L; in the test with B. subtilis (ATCC 6633) [6], 1.6 mg/L (≈ 3.11 µM); in test [7] it was over 200 mg/L. In addition, in test [8], the “FAS II inhibitory activity” value is recorded as “do not demonstrate”. Moreover, the “antibacterial activity against MRSA” value in test [9] is given as “demonstrated antibacterial activity”.
`CCCCC/C=C\C/C=C\CCCCCCCc1cc(O)cc(O)c1C(=O)Oc1cc(C)c(C(=O)O)c(O)c1` [2b, Geministatin B]: the “IC50 NS-1” value in [10] was over 50 µM. For the same compound, in the test on MRSA (ATCC 33592) [11], the “Minimum inhibitory concentration (MIC) MRSA” value is 1.6 mg/L (≈ 2.97 µM). Besides, in the test on S. aureus (ATCC 25923) [12], the “Minimum inhibitory concentration (MIC) S. aureus” value is 3.1 mg/L (≈ 5.75 µM). Further, the “Minimum inhibitory concentration (MIC) B. subtilis” value in the test on B. subtilis (ATCC 6633) [13] was 0.4 mg/L (≈ 0.743 µM). Moreover, the “Minimum inhibitory concentration (MIC) S. cerevisiae” value in test [14] is over 200 mg/L. For the same compound, the “IC50 NFF” value in test [15] is over 100 µM.
